What was measured:
proMMP-1 = experiment: activation of proMMP-1 by plasmin in cultured dermal fibroblasts (western blot); assay type: cell-based; conditions: 25 µg/mL; 2,5 µg/mL plasmin; Figure 1C-4
Method: (§1) • La Figure 1 représente la modulation de l'activation des proMMP-3 (Figures 1A et 1B) et proMMP-1 (Figure 1C) in vitro comme en culture par des extraits glycolipidiques du gluten de blé. • Figure 1A : 100 nM de proMMP-3 (Figure 1A-1) sont incubés avec 65 nM de plasmine en absence (Figure 1A-2) ou en présence de glycolipides (Figure 1A-3 et 4), à la concentration de 50µg/mL pour M1-Sucres (Figure 1A-3) et 25 µg/mL pour ED 23-11 (Figure 1A-4). • Figure 1B : des fibroblastes dermiques sont ensemencés en plaque 24 puits à raison de […] cellules par puits jusque confluence. Après une mise au repos de 18 heures, les cellules sont incubées en présence (Figure 1B-2, 3 et 4) ou non (Figure 1B-1) de 2,5 µg/mL de plasmine ainsi que des glycolipides M1(-Sucres) (Figure 1B-3) et ED 23-11 (Figure 1B-4) aux mêmes concentrations que précédemment. • Figure 1C : des fibroblastes dermiques sont ensemencés en plaque 24 puits à raison de […] cellules par puits jusque confluence. Après une mise au repos de 18 heures, les cellules sont incubées en présence (Figure 1C-2, 3 et 4) ou non (Figure 1C-1) de 2,5 µg/mL de plasmine ainsi que des glycolipides M1(-Sucres) (Figure 1C-3) et ED 23-11 (Figure 1C-4) aux mêmes concentrations que précédemment. Dans l'ensemble des figures 1A, 1B et 1C, la réaction est arrêtée aux temps indiqués par addition de 0,3 mg/ml d'aprotinine. […]

proMMP-3 = experiment: activation of proMMP-3 by plasmin in cultured dermal fibroblasts (western blot); assay type: cell-based; conditions: 25 µg/mL; 2,5 µg/mL plasmin; Figure 1B-4
Method: as §1

## CCCCC/C=C\C/C=C\CCCCCCCCOC[C@H](CO[C@@H]1O[C@H](COC(=O)CCCCCCCCCCCCCCC)[C@H](O)[C@H](O)[C@H]1O)OCCCCCCCC/C=C\C/C=C\CCCCC [ED23-11, 1,2-di-O-linoléyl-3-O-[6'-O-palmitoyl-β-D-galactopyranosyl]-sn-glycérol]
proMMP-1
  activation de la proMMP-1: inhibition significative
proMMP-3
  activation de la proMMP-3: inhibition significative
